This is an account of results in ChEMBL document CHEMBL1134028, “1,2,5-Thiadiazole derivatives are potent and selective ligands at human 5-HT1A receptors” (Bioorg Med Chem Lett, 2001).

The target of assay [1] is Adrenergic receptor alpha-1 (Rattus norvegicus) (UniProt P15823+P23944+P43140). As to the kind of experiment: Compound was tested for percent inhibition at Alpha-1 adrenergic receptor in rat at 100 nM concentration.
The target in assay [2] is T1, 5-hydroxytryptamine receptor 1A (Homo sapiens, UniProt P08908).
T1 sequence (P08908 whole entry): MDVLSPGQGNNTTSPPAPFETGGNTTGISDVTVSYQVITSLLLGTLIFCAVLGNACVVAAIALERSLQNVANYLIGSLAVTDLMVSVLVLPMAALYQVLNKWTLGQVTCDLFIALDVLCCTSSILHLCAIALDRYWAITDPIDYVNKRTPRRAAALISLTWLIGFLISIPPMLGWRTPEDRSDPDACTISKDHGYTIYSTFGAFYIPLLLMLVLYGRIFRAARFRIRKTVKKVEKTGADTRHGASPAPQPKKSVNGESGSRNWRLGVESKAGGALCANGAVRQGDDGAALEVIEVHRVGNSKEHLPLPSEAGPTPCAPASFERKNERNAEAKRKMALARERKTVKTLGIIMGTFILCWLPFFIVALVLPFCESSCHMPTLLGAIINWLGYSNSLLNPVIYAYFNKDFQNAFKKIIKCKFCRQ
As to the kind of experiment: Ability to displace [3H]8-OH-DPAT from CHO cells stably transfected with human 5-hydroxytryptamine 1A receptor. Type of assay: cell-based.

Assay [3] deals with CHO. As to the kind of experiment: Effective concentration for intrinsic activity determined by the compound ability to reverse the forskolin-stimulated turnover of cAMP in CHO cells. The settings on record: Cricetulus griseus.
For assay [4], the system named is CHO. As to the kind of experiment: Intrinsic activity determined by the compound ability to reverse the forskolin-stimulated turnover of cAMP in CHO cells. The format is functional. The settings on record: Cricetulus griseus.
Assay [5] deals with D(2) dopamine receptor (Rattus norvegicus) (UniProt P61169). The experiment in a line: Percent inhibition towards dopamine D2 receptor at 100 nM concentration.
D(2) dopamine receptor (Rattus norvegicus), sequence (P61169 whole entry): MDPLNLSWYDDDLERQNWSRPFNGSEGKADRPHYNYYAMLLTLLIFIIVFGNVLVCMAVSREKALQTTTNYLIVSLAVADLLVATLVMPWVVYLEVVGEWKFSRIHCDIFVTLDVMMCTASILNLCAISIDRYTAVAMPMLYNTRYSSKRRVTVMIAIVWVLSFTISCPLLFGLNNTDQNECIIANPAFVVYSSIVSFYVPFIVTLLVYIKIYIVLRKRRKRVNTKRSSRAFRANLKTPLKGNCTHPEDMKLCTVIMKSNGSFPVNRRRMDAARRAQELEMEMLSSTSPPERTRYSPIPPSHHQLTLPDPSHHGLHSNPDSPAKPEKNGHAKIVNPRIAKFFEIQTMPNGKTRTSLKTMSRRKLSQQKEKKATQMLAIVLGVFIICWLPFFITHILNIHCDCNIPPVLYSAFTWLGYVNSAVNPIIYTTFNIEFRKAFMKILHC
Assay [6] has as its system CHO. The experiment in a line: Inhibitory activity determined by the compound ability to reverse the forskolin-stimulated turnover of cAMP in CHO cells. Type of assay: functional, cell-based. To be noted: Cricetulus griseus.
The target in assay [7] is T2, 5-hydroxytryptamine receptor 1A (Homo sapiens) (UniProt P08908).
T2 sequence (whole entry): T1 sequence (P08908 whole entry)
The experiment in a line: Ability to displace [3H]-8-OH-DPAT from CHO cells stably transfected with human 5-hydroxytryptamine 1A receptor at a concentration of 1 uM. The format is cell-based.

The target in assay [8] is D(3) dopamine receptor (Homo sapiens, UniProt P35462). As to the kind of experiment: Percent inhibition towards dopamine D3 receptor.
D(3) dopamine receptor, sequence (P35462 whole entry): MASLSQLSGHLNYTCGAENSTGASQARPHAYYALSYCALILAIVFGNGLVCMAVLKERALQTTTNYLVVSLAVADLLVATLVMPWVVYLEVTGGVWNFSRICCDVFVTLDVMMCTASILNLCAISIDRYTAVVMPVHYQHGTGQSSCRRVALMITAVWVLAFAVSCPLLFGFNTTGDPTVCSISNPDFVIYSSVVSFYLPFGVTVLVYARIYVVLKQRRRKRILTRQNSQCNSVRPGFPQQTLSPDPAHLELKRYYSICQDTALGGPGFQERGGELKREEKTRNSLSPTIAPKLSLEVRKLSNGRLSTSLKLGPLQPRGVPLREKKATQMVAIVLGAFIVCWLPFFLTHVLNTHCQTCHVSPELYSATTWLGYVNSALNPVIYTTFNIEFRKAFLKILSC
The target of assay [9] is T3, D(4) dopamine receptor (Homo sapiens, UniProt P21917).
T3 sequence (P21917 whole entry): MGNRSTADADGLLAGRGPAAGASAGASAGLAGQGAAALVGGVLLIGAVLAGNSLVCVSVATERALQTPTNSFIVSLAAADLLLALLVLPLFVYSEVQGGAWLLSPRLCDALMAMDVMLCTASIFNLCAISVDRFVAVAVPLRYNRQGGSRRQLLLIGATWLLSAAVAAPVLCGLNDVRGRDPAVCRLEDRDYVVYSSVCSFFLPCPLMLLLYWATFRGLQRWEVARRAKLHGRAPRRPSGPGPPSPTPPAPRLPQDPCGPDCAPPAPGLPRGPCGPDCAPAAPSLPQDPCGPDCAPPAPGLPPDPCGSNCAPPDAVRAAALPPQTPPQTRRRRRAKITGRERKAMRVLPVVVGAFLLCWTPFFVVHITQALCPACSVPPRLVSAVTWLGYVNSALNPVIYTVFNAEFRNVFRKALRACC
As to the kind of experiment: Percent inhibition towards dopamine D4 receptor.

Assay [10] deals with D(2) dopamine receptor (Rattus norvegicus, UniProt P61169). As to the kind of experiment: Percent inhibition towards dopamine D2 receptor.
D(2) dopamine receptor, sequence (P61169 whole entry): as the sequence (P61169 whole entry) above

SMILES strings stand for the structures.

In assay [1], `O=C(N[C@@H](Cc1ccccc1)CN1CCN(c2nsnc2Cl)CC1)C1CCCCC1` had an inhibition of 17%. In [2], this molecule returned a Ki of 0.8 nM. Besides, the EC50 in assay [3] amounted to 4.6 nM. In [4], the Emax stood at 93%.

As for `COc1nsnc1N1CCN(C[C@@H](Cc2ccccc2)N(C)C(=O)C2CCCCC2)CC1`, the inhibition in assay [1] stood at 0%; in [5] it was 11%. In addition, in assay [2], the Ki is 1.5 nM. Further, the IC50 in assay [6] is 72.7 nM.

Turning to `CN(C(=O)C1CCCCC1)[C@H](Cc1ccccc1)CN1CCN(c2nsnc2Cl)CC1`, the inhibition in assay [1] is 0%. The same molecule had an IC50 in assay [6] of 49.3 nM.

As for `COc1nsnc1N1CCN(C[C@@H](Cc2ccccc2)N(C)C(=O)c2ccccc2)CC1`, the inhibition in assay [1] turned out to be 15%. The molecule also yielded a Ki in [2] of 9.9 nM. Besides, the Emax in [4] is 0%. The molecule further had an IC50 in assay [6] of 6.4 nM.

In turn, `O=C(N[C@@H](Cc1ccccc1)CN1CCN(c2nsnc2Cl)CC1)c1ccccn1` returned an inhibition in assay [7] of 47%.

With `COc1nsnc1N1CCN(C[C@@H](Cc2ccccc2)N(C)C(=O)N2CCOCC2)CC1`, the inhibition in [7] amounted to 46%.

Turning to `COc1nsnc1N1CCN(C[C@@H](Cc2cccnc2)NC(=O)C2(C)CCCCC2)CC1`, the IC50 is 489 nM in assay [8], 1100 nM in assay [9], 3.52 µM in [10] and 113 nM in [6]. Moreover, the affinity in [2], expressed as Ki, was 3 nM. In assay [4], the Emax is 0%.

Usually inhibition stands for how much of the control response was suppressed. A higher inhibition goes with a response far below the control. The term Ki denotes the equilibrium dissociation constant of an inhibitor or competing ligand from its target. Lower therefore signals a stronger hold on the target. Usually EC50 stands for the concentration at which the effect is half-maximal. One may read the Emax as the maximal effect, on the per cent scale that the assay sets. Broadly, the IC50 is the concentration needed to halve the response being measured. Low values mean higher potency, high ones lower potency.
